Reference: patent US5389621A, “Method of enhancing the anticoagulant effects of aspirin using salicylamide” (University of Medicine and Dentistry of New Jersey, priority 1994, dated 1995)
Where two headings read alike, the source gives them in different places. Values belong to the compound of their own block, whether it stands above or below them.

Columns and labels:
[1] = oral, rats; cited from earlier work
[2] = Tightly protein-bound 14C radioactivity after 14C-salicylamide; type: in vivo, male Sprague-Dawley rats; conditions: for Effect on tightly protein-bound 14C in lung: 14C-SAM with ASA; for Tightly protein-bound 14C in heart / Tightly protein-bound 14C in kidney / Tightly protein-bound 14C in liver / Tightly protein-bound 14C in lung / Tightly protein-bound 14C in plasma: 1.5 hr
Protocol: Forty-eight rats were divided into two groups.
The rats were anesthetized by light diethyl ether inhalation.
The plasma tightly protein-bound activity was measured by adding 100 μl of 10% trichloroacetic acid (TCA) to 100 μl of plasma in microcentrifuge tubes and vortexing the contents for 1 minute followed by centrifugation at 1800×g for 10 minutes. The supernatant was decanted and the tubes with the pellets in them were placed in scintillation vials each containing 15 ml of Aquasol-2 scintillation fluid. […] The radioactivity in the scintillation vials was counted in Beckman LS counter.
In the case of plasma analysis, 100 μl samples were used and the remainder of the procedure was the same as described above. The pellets were not dissolved but instead directly poured in a tube containing 15 ml of the scintillation fluid and the radioactivity was measured in the Beckman LS counter.

[3] = test system: lyso-PAF:acetyl-CoA acetyltransferase; conditions: cited from earlier work
[4] = Plasma kinetics of total 14C after oral 14C-salicylamide alone or with aspirin; type: in vivo, male Sprague-Dawley rats; conditions: for AUC.infin. of 14C: mean ± SE, n=6
Protocol: Male adult Sprague-Dawley rats (300-325 gm) obtained from Charles River Breeding Laboratory, N. Wilmington, Mass. were quarantined for one week. All animals were identified by ear punching. Food and water were provided ad libitum. The animals were maintained on rodent lab chow diet in a controlled environment with 50% humidity and 12 hour light/dark cycle.
Two dose combinations were employed. The low dose was 10 and/or 3 mg/kg of ASA and/or SAM, respectively, while the high dose was double the low dose. These doses were approximately equal (w/w) to that in commercially available combinations, e.g., BC® formula, when administered to humans.
Rats were divided into 2 groups; the first group consisted of 30 rats which were assigned to 5 subgroups, 6 rats each, according to the following treatment scheme:
The second group consisted of 4 subgroups and were administered double the dose received by the first group (with the exception of subgroup III).
The rats were fasted overnight (~18 hr.) before administration of the treatments and were allowed water ad libitum. The drug(s) to be given were prepared fresh in the morning of the study, dissolved in 2.5 ml of deionized water and gavaged to rats. […]
The samples were collected by heparinized plastic syringes and transferred to polyethylene test tubes. The samples, ~300 μl each, were rapidly centrifuged at 1800×g for 15 minutes at 4° C.
The terminal elimination rate constant (ke) was estimated by linear regression of the terminal β phase of the plasma concentration vs. time curves. The area under the curve (AUC.infin.) was calculated by using the trapezoidal method from zero to the last measured plasma concentration. The half-life of elimination (t1/2β) was obtained by the equation t1/2β =0.693/ke.
Total body clearance (ClT) was estimated by the equation ClT =Dose/AUC assuming a complete absorption of ASA and SAM (Iwamoto et al., 1982; Iwamoto et al., 1983). The apparent volume of distribution Vd was calculated from the formula, Vd =ClT /ke.

lipooxygenase pathway = conditions: cited from earlier work
[5] = Acid-hydrolyzed fraction of SA in liver, kidney and plasma after 14C-aspirin; conditions: low or high dose combinations
Protocol: Forty-eight rats were divided into two groups. The first group of rats was administered ASA, SAM or their combination in a dose approximately equal (w/w) to that in the commercially available combinations, e.g., BC® formula, when administered to humans, i.e., 10 and 3 mg/kg of ASA and SAM, respectively. The second group was administered double the dosage received by the first group.
For each sample to be analyzed, 2 aliquots each of 300 mg of tissue (liver or kidney) or 100 μl of plasma, were placed in polyethylene wide-pore tubes (Fisherbrand) along with 0.5 ml of physiological saline. The tissues were homogenized using an electrical homogenizer (Polytron, Brinkmann Instruments, Westbury, N.Y.) on high speed for 2 minutes for each sample. The tubes were dipped in ice during this procedure to minimize any loss of SA by sublimation from the heat generated by the high speed of the homogenization.
The homogenates were transferred by pipette to pyrex screw-top test tubes and the tubes were then divided into 2 groups: […]
The supernatants were filtered through disposable 0.45 μm Acrodisc filters and 100 μl were injected onto HPLC. […] The radioactivity in the vials was measured by Beckman LS scintillation counter and the difference in radioactivity between the control vials and the acidhydrolyzed ones was indicative of SA conjugates as well as part of the protein-bound SA in the tissue samples. […]

cyclooxygenase = conditions: in vitro, cited from earlier work
[6] = cited from earlier work
[7] = ASA 20 mg/kg with 14C-SAM 6 mg/kg
[8] = oral 14C-SAM 3 mg/kg, alone or with ASA 10 mg/kg
[9] = oral 14C-SAM 6 mg/kg, alone or with ASA 20 mg/kg

SMILES: CC(=O)Oc1ccccc1C(=O)O [ASA, acetylsalicylic acid]
Intestinal and hepatic extraction and/or metabolism of oral dose [1]: More than 60%
Effect on tightly protein-bound 14C in lung ([2]; high dose): reached a significant level
Effect on tightly protein-bound 14C in lung ([2]; low dose): tended to be higher
Effect of ASA on tightly protein-bound 14C in heart ([2]; low dose combination): significantly enhanced
Effect on lyso-PAF:acetyl-CoA acetyltransferase [3]: inhibitory effect
Effect of ASA on AUC.infin. of 14C after 14C-SAM [4, 7]: significantly increased
Effect of ASA on elimination half-life of 14C after 14C-SAM [4, 7]: significantly increased
Effect of ASA on SAM kinetics ([4]; ASA low dose 10 mg/kg): did not significantly effect SAM kinetics
Effect of ASA on total body clearance of SAM ([4]; low and high dose combinations): tended to decrease
Effect on the lipooxygenase pathway (lipooxygenase pathway): reversibly block the lipooxygenase pathway

Tightly protein-bound 14C in heart [2, 8]: 20.6 ± 1.7 ng ^14 C/gm tissue
Tightly protein-bound 14C in kidney [2, 8]: 669.0 ± 45.1 ng ^14 C/gm tissue
Tightly protein-bound 14C in liver [2, 8]: 24.2 ± 4.0 ng ^14 C/gm tissue
Tightly protein-bound 14C in lung [2, 8]: 43.1 ± 6.1 ng ^14 C/gm tissue
Tightly protein-bound 14C in plasma [2, 8]: 57.8 ± 3.0 ng ^14 C/ml plasma
Tightly protein-bound 14C in heart [2, 9]: 87.7 ± 11.0 ng ^14 C/gm tissue
Tightly protein-bound 14C in kidney [2, 9]: 1104.5 ± 212.6 ng ^14 C/gm tissue
Tightly protein-bound 14C in liver [2, 9]: 72.6 ± 10.7 ng ^14 C/gm tissue
Tightly protein-bound 14C in lung [2, 9]: 134.8 ± 20.7 ng ^14 C/gm tissue
Tightly protein-bound 14C in plasma [2, 9]: 154.6 ± 29.8 ng ^14 C/ml plasma
C1T total body clearance of 14C [4, 8]: 543.7 ± 89.5 mL/h
Cmax of 14C [4, 8]: 1800 ± 300 ng/mL
T1/2β elimination half-life of 14C [4, 8]: 1.1 ± 0.24 h
Vd apparent volume of distribution of 14C [4, 8]: 975 ± 152 mL
AUC.infin. of 14C [4, 8]: 1.9 ± 0.4 μ · hr/ml
C1T total body clearance of 14C [4, 9]: 501.1 ± 64.9 mL/h
Cmax of 14C [4, 9]: 3700 ± 500 ng/mL
T1/2β elimination half-life of 14C [4, 9]: 1.1 ± 0.1 h
Vd apparent volume of distribution of 14C [4, 9]: 824 ± 156 mL
AUC.infin. of 14C [4, 9]: 3.9 ± 0.5 μ · hr/ml
SMILES: N[14C](=O)c1ccccc1O [^14 C-SAM]

Change of acid-hydrolyzed SA fraction in liver [5]: did not affect
SMILES: NC(=O)c1ccccc1O [SAM, Salicylamide]
Effect on cyclooxygenase (cyclooxygenase): no effect in vitro on cyclooxygenase
Effect on cyclooxygenase (cyclooxygenase; listed as salicylamide): does not have a demonstrable effect on the cyclooxygenase pathway in vitro
Biliary excretion ([6]; in vivo): negligible
Bound to plasma proteins ([6]; in vivo): About 50%
Hydrolysis in vivo to a salicylate ([6]; in vivo): not hydrolyzed in vivo to form a salicylate
First-pass metabolism of the administered dose ([6]; oral): up to 70%
